Assay results published in patent US10703765B2 (priority 2014, dated 2020).
Counter-ions that a name gives are not always drawn.

target: human σ1 receptor (Homo sapiens, UniProt Q99720); assay: biochemical; assay type: binding; set-up: μ and σ1 dual binding: key to the marks not given beside the values; settings: not given
Sequence (Q99720 whole entry): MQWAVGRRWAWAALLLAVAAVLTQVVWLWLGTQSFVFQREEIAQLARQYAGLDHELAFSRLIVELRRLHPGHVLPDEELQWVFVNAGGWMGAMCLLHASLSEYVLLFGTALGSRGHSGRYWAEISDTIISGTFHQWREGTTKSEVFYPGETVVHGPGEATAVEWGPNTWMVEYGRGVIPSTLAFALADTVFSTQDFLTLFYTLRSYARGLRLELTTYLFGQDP

Structure (SMILES) | μ and σ1 dual binding | Ki
COc1ccc(CCN2CCC3(CC2)CN(c2ccccc2)C(=O)C(C)O3)cn1 (stereo not shown) [Example 111, 9-(2-(6-methoxypyridin-3-yl)ethyl)-2-methyl-4-phenyl-1-oxa-4,9-diazaspiro[5.5]undecan-3-one] | ++ | 
CC1OC2(CCN(CCc3cncc(C(F)(F)F)c3)CC2)CN(c2ccccc2)C1=O (stereo not shown) [Example 112, 2-methyl-4-phenyl-9-(2-(5-(trifluoromethyl)pyridin-3-yl)ethyl)-1-oxa-4,9-diazaspiro[5.5]undecan-3-one hydrochloride] |  | < 500 nM
CC1OC2(CCN(CCc3cncc(F)c3)CC2)CN(c2ccccc2)C1=O (stereo not shown) [Example 114, 9-(2-(5-fluoropyridin-3-yl)ethyl)-2-methyl-4-phenyl-1-oxa-4,9-diazaspiro[5.5]undecan-3-one hydrochloride] |  | < 500 nM
CC1OC2(CCN(CCc3cncc(Cl)c3)CC2)CN(c2ccccc2)C1=O (stereo not shown) [Example 115, 9-(2-(5-chloropyridin-3-yl)ethyl)-2-methyl-4-phenyl-1-oxa-4,9-diazaspiro[5.5]undecan-3-one hydrochloride] |  | < 500 nM
CC1OC2(CCN(CCc3cccc(C#N)n3)CC2)CN(c2ccccc2)C1=O.Cl (stereo not shown) [Example 123, 6-(2-(2-methyl-3-oxo-4-phenyl-1-oxa-4,9-diazaspiro[5.5]undecan-9-yl)ethyl)picolinonitrile hydrochloride] | ++ | 
C[C@@H]1OC2(CCN(CCc3ccccc3F)CC2)CN(c2cnccc2C(F)(F)F)C1=O.Cl [Example 127a, (S)-9-(2-fluorophenethyl)-2-methyl-4-(4-(trifluoromethyl)pyridin-3-yl)-1-oxa-4,9-diazaspiro[5.5]undecan-3-one hydrochloride] | ++ | 
CC1OC2(CCN(CCC3CCOCC3)CC2)CN(c2ccccc2)C1=O.Cl (stereo not shown) [Example 131, 2-methyl-4-phenyl-9-(2-(tetrahydro-2H-pyran-4-yl)ethyl)-1-oxa-4,9-dizaspiro[5.5]undecan-3-one hydrochloride] | ++ | 
CC1OC2(CCN(CCc3ccncc3)CC2)CN(c2ccccc2)C1=O.Cl (stereo not shown) [Example 133, 2-methyl-4-phenyl-9-(2-(pyridin-4-yl)ethyl)-1-oxa-4,9-diazaspiro[5.5]undecan-3-one hydrochloride] | ++ | 
COCC1OC2(CCN(CCc3ccccn3)CC2)CN(c2ccccc2F)C1=O.Cl (stereo not shown) [Example 134, 4-(2-fluorophenyl)-2-(methoxymethyl)-9-(2-(pyridin-2-yl)ethyl)-1-oxa-4,9-diazaspiro[5.5]undecan-3-one hydrochloride] | ++ | 
COCC1OC2(CCN(CCc3ccccc3F)CC2)CN(c2ccccc2F)C1=O (stereo not shown) [Example 136, 9-(2-fluorophenethyl)-4-(2-fluorophenyl)-2-(methoxymethyl)-1-oxa-4,9-diazaspiro[5.5]undecan-3-one hydrochloride] |  | < 500 nM

same assay, conditions: combined class from Ki-σ1 (human σ1 receptor, A1) and Ki-μ (human μ-opioid receptor, A2) radioligand binding

Structure (SMILES) | μ and σ1 dual binding
CC(C)OCCN1CCC2(CC1)CN(Cc1ccc(C(F)(F)F)cn1)C(=O)C(C)O2 (stereo not shown) [Example 125, 9-(2-isopropoxyethyl)-2-methyl-4-((5-(trifluoromethyl)pyridin-2-yl)methyl)-1-oxa-4,9-diazaspiro[5.5]undecan-3-one] | ++
COCC1OC2(CCN(CCc3ccccc3OC)CC2)CN(c2ccccc2F)C1=O (stereo not shown) [Example 135, 4-(2-fluorophenyl)-2-(methoxymethyl)-9-(2-methoxyphenethyl)-1-oxa-4,9-diazaspiro[5.5]undecan-3-one] | ++

same assay, conditions: read-out: μ and σ1 dual binding

Structure (SMILES) | Ki
Nc1cccc(CN2CC3(CCN(CCc4ccccc4)CC3)OCC2=O)n1 [Example 104, 4-((6-aminopyridin-2-yl)methyl)-9-phenethyl-1-oxa-4,9-diazaspiro[5.5]undecan-3-one] | > 500 nM
O=C1COC2(CCN(CCc3ccccc3)CC2)CN1Cc1ccc(Cl)cn1 [Example 105, 4-((5-chloropyridin-2-yl)methyl)-9-phenethyl-1-oxa-4,9-diazaspiro[5.5]undecan-3-one hydrochloride] | < 100 nM
CC(C)(C)OC(=O)Nc1nc(CCN2CCC3(CC2)CN(Cc2ccc(C(F)(F)F)cn2)C(=O)CO3)cs1 [Example 106, tert-butyl (4-(2-(3-oxo-4-((5-(trifluoromethyl)pyridin-2-yl)methyl)-1-oxa-4,9-diazaspiro[5.5]undecan-9-yl)ethyl)thiazol-2-yl)carbamate] | > 500 nM
CNS(=O)(=O)c1ccc(CCN2CCC3(CC2)CN(c2ccccc2)C(=O)C(C)O3)cc1 (stereo not shown) [Example 107, N-methyl-4-(2-(2-methyl-3-oxo-4-phenyl-1-oxa-4,9-diazaspiro[5.5]undecan-9-yl)ethyl)benzenesulfonamide] | > 500 nM
CC1OC2(CCN(CCc3ccc(S(N)(=O)=O)cc3)CC2)CN(c2ccccc2)C1=O (stereo not shown) [Example 108, 4-(2-(2-methyl-3-oxo-4-phenyl-1-oxa-4,9-diazaspiro[5.5]undecan-9-yl)ethyl)benzenesulfonamide] | > 500 nM
COc1ccc(CN2CC3(CCN(CCc4ccccc4)CC3)OC3(CC3)C2=O)cc1 [Example 109, 12-(4-methoxybenzyl)-8-phenethyl-4-oxa-8,12-diazadispiro[2.1.5.3]tridecan-13-one hydrochloride] | < 100 nM
CC1OC2(CCN(CCn3ccc([N+](=O)[O-])n3)CC2)CN(c2ccccc2)C1=O (stereo not shown) [Example 110, 2-methyl-9-(2-(3-nitro-1H-pyrazol-1-yl)ethyl)-4-phenyl-1-oxa-4,9-diazaspiro[5.5]undecan-3-one] | > 500 nM
CC1OC2(CCN(CCc3ccc(Cl)nc3)CC2)CN(c2ccccc2)C1=O (stereo not shown) [Example 113, 9-(2-(6-chloropyridin-3-yl)ethyl)-2-methyl-4-phenyl-1-oxa-4,9-diazaspiro[5.5]undecan-3-one] | > 500 nM
CC1OC2(CCN(CCn3nccc3NC(=O)OC(C)(C)C)CC2)CN(c2ccccc2)C1=O (stereo not shown) [Example 116, tert-butyl (1-(2-(2-methyl-3-oxo-4-phenyl-1-oxa-4,9-diazaspiro[5.5]undecan-9-yl)ethyl)-1H-pyrazol-5-yl)carbamate] | > 500 nM
CC(C)C1OC2(CCN(CCc3csc(NC(=O)OC(C)(C)C)n3)CC2)CN(c2ccccc2F)C1=O (stereo not shown) [Example 117, tert-butyl (4-(2-(4-(2-fluorophenyl)-2-isopropyl-3-oxo-1-oxa-4,9-diazaspiro[5.5]undecan-9-yl)ethyl)thiazol-2-yl)carbamate] | > 500 nM
CC(C)(C)OC(=O)Nc1nc(CCN2CCC3(CC2)CN(c2ccccc2)C(=O)C2(CC2)O3)cs1 [Example 118, tert-butyl (4-(2-(13-oxo-12-phenyl-4-oxa-8,12-diazadispiro[2.1.5.3]tridecan-8-yl)ethyl)thiazol-2-yl)carbamate] | > 500 nM
O=C1N(Cc2ccc(C(F)(F)F)cn2)CC2(CCN(CCc3cccc([N+](=O)[O-])c3)CC2)OC12CC2 [Example 119, 8-(3-nitrophenethyl)-12-{[5-(trifluoromethyl)pyridin-2-yl]methyl}-4-oxa-8,12-diazadispiro[2.1.5.3]tridecan-13-one] | > 500 nM
CC(C)(C)OC(=O)Nc1nc(CCN2CCC3(CC2)CN(Cc2ccc(C(F)(F)F)cn2)C(=O)C2(CC2)O3)cs1 [Example 120, tert-butyl (4-(2-(13-oxo-12-{[5-(trifluoromethyl)pyridin-2-yl]methyl}-4-oxa-8,12-diazadispiro[2.1.5.3]tridecan-8-yl)ethyl)thiazol-2-yl)carbamate] | > 500 nM
CC1OC2(CCN(CCc3csc(NC(=O)OC(C)(C)C)n3)CC2)CN(c2cnccc2C(F)(F)F)C1=O (stereo not shown) [Example 121, tert-butyl (4-(2-(2-methyl-3-oxo-4-(4-(trifluoromethyl)pyridin-3-yl)-1-oxa-4,9-diazaspiro[5.5]undecan-9-yl)ethyl)thiazol-2-yl)carbamate] | > 500 nM
CC(C)OCCN1CCC2(CC1)CN(c1ccccc1)C(=O)C(C)O2 (stereo not shown) [Example 122, 9-(2-isopropoxyethyl)-2-methyl-4-phenyl-1-oxa-4,9-diazaspiro[5.5]undecan-3-one] | > 500 nM
CC1OC2(CCN(CC(=O)N3CCOCC3)CC2)CN(Cc2ccc(C(F)(F)F)cn2)C1=O (stereo not shown) [Example 124, 2-methyl-9-(2-morpholino-2-oxoethyl)-4-((5-(trifluoromethyl)pyridin-2-yl)methyl)-1-oxa-4,9-diazaspiro[5.5]undecan-3-one hydrochloride] | > 500 nM
CC1OC2(CCN(CCc3ccccc3F)CC2)CN(c2cnccc2C(F)(F)F)C1=O (stereo not shown) [Example 126, 9-(2-fluorophenethyl)-2-methyl-4-(4-(trifluoromethyl)pyridin-3-yl)-1-oxa-4,9-diazaspiro[5.5]undecan-3-one hydrochloride] | < 100 nM
C[C@H]1OC2(CCN(CCc3ccccc3F)CC2)CN(c2cnccc2C(F)(F)F)C1=O [Example 127b, (R)-9-(2-fluorophenethyl)-2-methyl-4-(4-(trifluoromethyl)pyridin-3-yl)-1-oxa-4,9-diazaspiro[5.5]undecan-3-one hydrochloride] | < 100 nM
CC1OC2(CCN(CC(=O)N3CCCCC3)CC2)CN(Cc2ccc(C(F)(F)F)cn2)C1=O (stereo not shown) [Example 128, 2-methyl-9-(2-oxo-2-(piperidin-1-yl)ethyl)-4-((5-(trifluoromethyl)pyridin-2-yl)methyl)-1-oxa-4,9-diazaspiro[5.5]undecan-3-one hydrochloride] | > 500 nM
CC1OC2(CCN(CC(=O)N3CCCCC3)CC2)CN(c2ccccc2)C1=O (stereo not shown) [Example 129, 2-methyl-9-(2-oxo-2-(piperidin-1-yl)ethyl)-4-phenyl-1-oxa-4,9-diazaspiro[5.5]undecan-3-one] | > 500 nM
CC1OC2(CCN(CCc3ccccc3F)CC2)CN(c2cccnc2C(F)(F)F)C1=O (stereo not shown) [Example 130, 9-(2-fluorophenethyl)-2-methyl-4-(2-(trifluoromethyl)pyridin-3-yl)-1-oxa-4,9-diazaspiro[5.5]undecan-3-one dihydrochloride] | < 500 nM
COc1cccc(CCN2CCC3(CC2)CN(c2ccccc2)C(=O)CO3)c1 [Example 132, 9-(3-methoxyphenethyl)-4-phenyl-1-oxa-4,9-diazaspiro[5.5]undecan-3-one] | < 500 nM
